# Earlier results as cited in patent US9902702B2, “Spirocycloheptanes as inhibitors of rock” (BRISTOL-MYERS SQUIBB COMPANY, priority 2014, dated 2018).
# Like-named read-outs stand apart in the source and are kept apart here.
# Assays:
# [1] = test system: spontaneously hypertensive rat, renal hypertensive rat and deoxycortisone acetate salt hypertensive rat models; conditions: cited from earlier work
# neointimal formation = conditions: rats, balloon injury model; cited from earlier work
# [2] = test system: congestive heart failure in Dahl salt-sensitive rats; conditions: cited from earlier work
structure (smiles),measurement,setting,value
C[C@@H](N)[C@H]1CC[C@H](C(=O)Nc2ccncc2)CC1 [Example Y-27632],blood pressure,[1]; control rats,only a minor effect on blood pressure
same,blood pressure,[1]; three rat models of hypertension,significantly decrease blood pressure
same,neointimal formation,neointimal formation,inhibited neointimal formation
same,"ventricular hypertrophy, fibrosis and function",[2],"improve ventricular hypertrophy, fibrosis and function"
